The values that follow come from PubChem BioAssay AID248 (DTP/NCI, 2004).

Structures are written as SMILES. Values joined by “and” are separate entries in the source; they are usually repeats but may differ in a detail not shown here. Equal entries are not always repeated. Inconclusive results and toxic doses are left out.

The subject of the test is L1210 leukemia ip in BDF1 mice, survival T/C. Kind of test: NCI In Vivo Anticancer Drug Screen. Data for tumor model L1210 Leukemia (intraperitoneal) in B6D2F1 (BDF1) mice. The settings on record: endpoint: mean survival time, higher = longer survival. The method in brief:
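Mice bearing the transplanted tumor received compound or vehicle. Survival of the treated group was divided by that of the vehicle-treated control group to give the ratio.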

[1] abbreviates: dose: 50.0 mg/kg/injection, schedule: Q01DX001 (ip), vehicle: carboxymethylcellulose (CMC).
[2] abbreviates: dose: 100.0 mg/kg/injection, schedule: Q01DX001 (ip), vehicle: carboxymethylcellulose (CMC).
[3] abbreviates: dose: 75.0 mg/kg/injection, schedule: Q01DX009 (ip), vehicle: saline with Tween-80.
Setting [4] is: dose: 100.0 mg/kg/injection, schedule: Q01DX001 (ip), vehicle: saline.
Where [5] appears, read: dose: 100.0 mg/kg/injection, schedule: Q04DX003 (ip), vehicle: saline.
[6] abbreviates: dose: 200.0 mg/kg/injection, schedule: Q04DX003 (ip), vehicle: saline.
Where [7] appears, read: dose: 400.0 mg/kg/injection, schedule: Q04DX003 (ip), vehicle: saline.
[8] abbreviates: dose: 100.0 mg/kg/injection, schedule: Q01DX009 (ip), vehicle: Klucel (hydroxypropylcellulose) (HPC).
[9] abbreviates: dose: 100.0 mg/kg/injection, schedule: Q04DX003 (ip), vehicle: Klucel (hydroxypropylcellulose) (HPC).
Where [10] appears, read: dose: 200.0 mg/kg/injection, schedule: Q01DX009 (ip), vehicle: Klucel (hydroxypropylcellulose) (HPC).
Where [11] appears, read: dose: 200.0 mg/kg/injection, schedule: Q04DX003 (ip), vehicle: Klucel (hydroxypropylcellulose) (HPC).
Setting [12] is: dose: 75.0 mg/kg/injection, schedule: Q01DX009 (ip), vehicle: saline.
[13] abbreviates: dose: 100.0 mg/kg/injection, schedule: Q01DX009 (ip), vehicle: saline with Tween-80.
[14] abbreviates: dose: 200.0 mg/kg/injection, schedule: Q01DX009 (ip), vehicle: saline with Tween-80.
The mark [15] stands for this setting: dose: 400.0 mg/kg/injection, schedule: Q01DX009 (ip), vehicle: saline with Tween-80.

For the molecule `Cc1cc(CC#N)c(CC#N)cc1C`, the T/C by setting is: under setting [1], 110 % of control; (dose: 50.0 mg/kg/injection, schedule: Q01DX009 (ip), vehicle: carboxymethylcellulose (CMC)) 96 % of control and 117 % of control; (dose: 50.0 mg/kg/injection, schedule: Q04DX002 (ip), vehicle: carboxymethylcellulose (CMC)) 94 % of control and 102 % of control; (dose: 50.0 mg/kg/injection, schedule: Q04DX003 (ip), vehicle: carboxymethylcellulose (CMC)) 98 % of control; under setting [2], 97 % of control; (dose: 100.0 mg/kg/injection, schedule: Q01DX009 (ip), vehicle: carboxymethylcellulose (CMC)) 100 % of control and 106 % of control. Moreover, the T/C reads like this: (dose: 100.0 mg/kg/injection, schedule: Q04DX002 (ip), vehicle: carboxymethylcellulose (CMC)) 102 % of control and 105 % of control; (dose: 100.0 mg/kg/injection, schedule: Q04DX003 (ip), vehicle: carboxymethylcellulose (CMC)) 95 % of control; (dose: 200.0 mg/kg/injection, schedule: Q01DX009 (ip), vehicle: carboxymethylcellulose (CMC)) 96 % of control; (dose: 200.0 mg/kg/injection, schedule: Q04DX002 (ip), vehicle: carboxymethylcellulose (CMC)) 97 % of control and 107 % of control.

With `NS(=O)(=O)c1ncnc2nc[nH]c12`, the T/C (dose: 5.0 mg/kg/injection, schedule: Q01DX Z (ip), vehicle: methylcellulose (MC)) was 108 % of control; the T/C (dose: 10.0 mg/kg/injection, schedule: Q01DX Z (ip), vehicle: methylcellulose (MC)) was 109 % of control; the T/C (dose: 22.0 mg/kg/injection, schedule: Q01DX001 (ip), vehicle: carboxymethylcellulose (CMC)) was 109 % of control and 117 % of control; the T/C (dose: 22.0 mg/kg/injection, schedule: Q01DX Z (ip), vehicle: carboxymethylcellulose (CMC)) is 124 % of control; the T/C (dose: 24.75 mg/kg/injection, schedule: Q01DX009 (ip), vehicle: saline) is 121 % of control; the T/C (dose: 25.0 mg/kg/injection, schedule: Q04DX003 (ip), vehicle: saline) was 117 % of control. Besides, the T/C reads like this: (dose: 30.0 mg/kg/injection, schedule: Q04DX003 (ip), vehicle: saline) 121 % of control; (dose: 33.0 mg/kg/injection, schedule: Q01DX001 (ip), vehicle: carboxymethylcellulose (CMC)) 107 % of control and 109 % of control; (dose: 33.0 mg/kg/injection, schedule: Q01DX Z (ip), vehicle: carboxymethylcellulose (CMC)) 120 % of control; (dose: 37.5 mg/kg/injection, schedule: Q01DX009 (ip), vehicle: saline) 119 % of control; under setting [1], 114 % of control and 119 % of control; (dose: 50.0 mg/kg/injection, schedule: Q04DX003 (ip), vehicle: saline) 120 % of control. Further, the T/C is, setting by setting: (dose: 66.0 mg/kg/injection, schedule: Q04DX003 (ip), vehicle: saline) 114 % of control; (dose: 75.0 mg/kg/injection, schedule: Q01DX001 (ip), vehicle: carboxymethylcellulose (CMC)) 117 % of control; under setting [3], 101 % of control; (dose: 75.0 mg/kg/injection, schedule: Q01DX Z (ip), vehicle: carboxymethylcellulose (CMC)) 152 % of control and 159 % of control and 165 % of control; under setting [4], 115 % of control; (dose: 114.0 mg/kg/injection, schedule: Q01DX Z (ip), vehicle: carboxymethylcellulose (CMC)) 93 % of control. Further, the T/C (dose: 200.0 mg/kg/injection, schedule: Q01DX Z (ip), vehicle: methylcellulose (MC)) is 113 % of control.

For `NCC1CC2CCC1C2` (stereo not given), the T/C is, setting by setting: (dose: 100.0 mg/kg/injection, schedule: Q01DX009 (ip), vehicle: saline) 90 % of control; under setting [5], 101 % of control; (dose: 200.0 mg/kg/injection, schedule: Q01DX009 (ip), vehicle: saline) 90 % of control; under setting [6], 103 % of control; under setting [7], 103 % of control.

In the case of `O=[N+]([O-])c1ccc(OCn2ncc3ccc([N+](=O)[O-])cc32)cc1`, the T/C is 93 % of control under setting [2]; 98 % of control (dose: 200.0 mg/kg/injection, schedule: Q01DX001 (ip), vehicle: carboxymethylcellulose (CMC)); 88 % of control (dose: 400.0 mg/kg/injection, schedule: Q01DX001 (ip), vehicle: carboxymethylcellulose (CMC)).

Consider `CN(Cc1cnc2nc(N)c([N+](=O)[O-])c(N)c2n1)c1ccc(C(=O)NC(CCC(=O)O)C(=O)O)cc1` (stereo not given), for which the T/C (dose: 100.0 mg/kg/injection, schedule: Q04DX002 (ip), vehicle: sodium bicarbonate) is 89 % of control and the T/C (dose: 200.0 mg/kg/injection, schedule: Q04DX002 (ip), vehicle: sodium bicarbonate) was 99 % of control.

As for `CCOC(=O)C(=Cc1ccccc1Cl)C(=O)OCC`, the T/C by setting is: under setting [8], 88 % of control; under setting [9], 104 % of control; under setting [10], 99 % of control; under setting [11], 90 % of control.

With `CC(=O)C(CCC#N)(CCC#N)CCC#N`, the T/C runs as follows: under setting [12], 93 % of control; (dose: 150.0 mg/kg/injection, schedule: Q01DX009 (ip), vehicle: saline) 95 % of control; under setting [6], 102 % of control; (dose: 300.0 mg/kg/injection, schedule: Q01DX009 (ip), vehicle: saline) 93 % of control; under setting [7], 87 % of control.

Take `O=C(Nc1ccccc1F)Oc1cccc2ccccc12`: the T/C runs as follows: under setting [13], 113 % of control; under setting [14], 109 % of control; under setting [15], 87 % of control.

With `COc1ncccn1`, the T/C under setting [12] was 93 % of control.

As for `CC(C)c1cc(C(C)C)n2nc(N)nc2n1`, the T/C reads like this: under setting [13], 96 % of control; under setting [14], 102 % of control; under setting [15], 105 % of control.

Turning to `COc1ccc2c(c1)N(C)CCCC2=O`, the T/C was 96 % of control under setting [5], 112 % of control under setting [6] and 87 % of control under setting [7].

For `CNc1cc([N+](=O)[O-])ccc1OCc1ccccc1`, the T/C runs as follows: under setting [3], 87 % of control; (dose: 100.0 mg/kg/injection, schedule: Q04DX003 (ip), vehicle: saline with Tween-80) 89 % of control; (dose: 150.0 mg/kg/injection, schedule: Q01DX009 (ip), vehicle: saline with Tween-80) 87 % of control; (dose: 200.0 mg/kg/injection, schedule: Q04DX003 (ip), vehicle: saline with Tween-80) 92 % of control; (dose: 300.0 mg/kg/injection, schedule: Q01DX009 (ip), vehicle: saline with Tween-80) 91 % of control; (dose: 400.0 mg/kg/injection, schedule: Q04DX003 (ip), vehicle: saline with Tween-80) 101 % of control.

In the case of `O=C(CCCC(=O)N/N=C/c1ccccc1O)N/N=C\c1ccccc1O`, the T/C reads like this: (dose: 50.0 mg/kg/injection, schedule: Q01DX001 (ip), vehicle: saline) 87 % of control; under setting [4], 90 % of control; (dose: 400.0 mg/kg/injection, schedule: Q01DX001 (ip), vehicle: saline) 90 % of control.

Take `CC1CCC(C(C)C)C(NCc2cc(Br)cc(Br)c2O)C1` (stereo not given): the T/C is, setting by setting: under setting [9], 98 % of control; under setting [11], 92 % of control; (dose: 400.0 mg/kg/injection, schedule: Q04DX003 (ip), vehicle: Klucel (hydroxypropylcellulose) (HPC)) 98 % of control.

`O=C(Nc1ccc(Br)cc1)Oc1ccc(-c2ccccc2)cc1`: the T/C was 95 % of control (dose: 50.0 mg/kg/injection, schedule: Q01DX009 (ip), vehicle: Klucel (hydroxypropylcellulose) (HPC)); 95 % of control and 91 % of control under setting [8]; 90 % of control under setting [10]; 86 % of control and 87 % of control (dose: 400.0 mg/kg/injection, schedule: Q01DX009 (ip), vehicle: Klucel (hydroxypropylcellulose) (HPC)).

Consider `O=[N+]([O-])c1ccc(N/N=C/CCl)c([N+](=O)[O-])c1`, for which the T/C runs as follows: (dose: 6.25 mg/kg/injection, schedule: Q01DX009 (ip), vehicle: saline with Tween-80) 94 % of control and 98 % of control; (dose: 6.25 mg/kg/injection, schedule: Q04DX003 (ip), vehicle: saline with Tween-80) 99 % of control; (dose: 12.5 mg/kg/injection, schedule: Q01DX009 (ip), vehicle: saline with Tween-80) 102 % of control and 105 % of control; (dose: 12.5 mg/kg/injection, schedule: Q04DX003 (ip), vehicle: saline with Tween-80) 87 % of control; (dose: 25.0 mg/kg/injection, schedule: Q01DX009 (ip), vehicle: saline with Tween-80) 98 % of control and 103 % of control; (dose: 25.0 mg/kg/injection, schedule: Q04DX003 (ip), vehicle: saline with Tween-80) 91 % of control.
